# Measured values reported in patent US8741947B2, “Biologically active macrolides, compositions, and uses thereof” (The United States of America, as represented by the …, priority 2000, dated 2014).
# Columns and labels:
# [1] = target: Neurospora crassa vacuolar membrane V-ATPase; experiment: V-ATPase inhibitory assay, Neurospora crassa vacuolar membrane; format: biochemical; settings: read-out: V-ATPase (Ki, nM) NCVM
# Description: (§1) The V-ATPase inhibitory assays were performed on representative compound(s) of the present invention using non-mammalian or mammalian (e.g., bovine cromaffin granule) V-ATPases as described by Bowman et al., Proc. Natl. Acad. Sci. USA, 85, 7972-7976, 1988.
# [2] = target: Chromaffin Granule Membrane V-ATPase; experiment: V-ATPase inhibitory assay, chromaffin granule membrane; format: biochemical; settings: Chromaffin Granule Membrane V-ATPase (bovine); read-out: V-ATPase (Ki, nM) CGM
# Description: as §1
# [3] = tested on: melanoma (LOX) human tumor cell line; experiment: 2-day in vitro cytotoxicity assay; format: cell-based; settings: 2-day in vitro assay
# Description: (§2) A 2.0 mg solution of chondropsin A in pyridine-d5 was kept at room temperature and ^1H NMR spectra were periodically acquired. […] After 7 days, the pyridine was removed under reduced pressure and the residue was purified by HPLC as described above to give 0.6 mg of a compound that by FABMS, HPLC retention time, ^1H NMR, and HSQC data, was identical to chondropsin D. Thus, chondropsin D can be prepared from chondropsin A via a base-catalyzed transesterification reaction in which the ester migrates from O-34 to O-67. The characterization of chondropsin D was facilitated by spectral analysis of the product of the corresponding base-catalyzed transesterification reaction of the dimethyl ester of chondropsin A (FIG. 1A, compound (3)), which produced the dimethyl ester of chondropsin D (FIG. 1A, compound (9)). Chondropsin D was evaluated for cytotoxic activity towards melanoma (LOX) and leukemia (MOLT-4) human tumor cell lines in a 2-day in vitro assay, the procedure for which is described in Bokesch et al., J. Nat. Prod., 62, 633-635 (1999).
# [4] = tested on: leukemia (MOLT-4) human tumor cell line; experiment: 2-day in vitro cytotoxicity assay; format: cell-based; settings: MOLT-4 leukemia cell line, 2-day in vitro assay
# Description: as §2
compound,measurement,setting,value
"CO/C1=C\C(C)=C\[C@@H](C)[C@@H](O)[C@@H](C)C/C(C)=C/C=C/[C@H](OC)[C@@H]([C@@H](C)[C@@H](O)[C@H](C)[C@@]2(O)C[C@@H](O)[C@H](C)[C@@H](C(C)C)O2)OC1=O [Bafilomycin A1, bafilomycin A1, reference compound]",Ki,[1],13 nM
same,Ki,[2],6 nM
"COC(=O)C(C)(C)C(O)C(C)C(=O)C(C)(C)C=CC(=O)NC(CC(C)C)C(O)C(C)C=C(C)C(O)C(C)CCC(O)C(C)C(=O)NC(C(C)O)C1OC(=O)C(C(O)C(=O)O)NC(=O)C=CC=CCCC=CC=CCC2CC(C)CC(CC(O)C(C)C(O)C(C)=CC(C)C(O)C(C)=CCC(OC(=O)CC(O)C(=O)O)C1C)O2 (centres unmarked) [Chondropsin A, 73-deoxy, 73-deoxychondropsin A]",Ki,[1],100 nM
same,Ki,[2],3000 nM
"COC(=O)C(C)(C)C(O)C(C)C(=O)C(C)(C)C=CC(=O)NC(C(O)C(C)C)C(O)C(C)C=C(C)C(O)C(C)CCC(O)C(C)C(=O)NC(C(C)O)C1OC(=O)C(C(O)C(=O)O)NC(=O)C=CC=CCCC=CC=CCC2CC(C)CC(CC(O)C(C)C(O)C(C)=CC(C)C(O)C(C)=CCC(OC(=O)CC(O)C(=O)O)C1C)O2 (centres unmarked) [Chondropsin A, chondropsin A]",Ki,[1],800 nM
same,Ki,[2],> 10000 nM
"COC(=O)C(O)CC(=O)OC1CC=C(C)C(O)C(C)C=C(C)C(O)C(C)C(O)CC2CC(C)CC(CC=CC=CCCC=CC=CC(=O)NC(C(O)C(=O)OC)C(=O)OC(C(NC(=O)C(C)C(O)CCC(C)C(O)C(C)=CC(C)C(O)C(NC(=O)C=CC(C)(C)C(=O)C(C)C(O)C(C)(C)C(=O)OC)C(O)C(C)C)C(C)O)C1C)O2 (centres unmarked) [Chondropsin A, dimethyl ester, chondropsin A dimethyl ester]",Ki,[1],50 nM
same,Ki,[2],500 nM
"COC(=O)C(C)(C)C(O)C(C)C(=O)C(C)(C)C=CC(=O)NC(C(O)C(C)C)C(O)C(C)C=C(C)C(O)C(C)CCC(O)C(C)C(=O)NC(C(C)O)C1OC(=O)C(C(O)C(=O)O)NC(=O)C=CC=CCCC=CC=CCC2CC(C)CC(CC(O)C(C)C(O)C(C)=CC(C)C(O)C(C)=CCC(O)C1C)O2 (centres unmarked) [Chondropsin B, chondropsin B]",Ki,[1],200 nM
same,Ki,[2],6000 nM
"CC1=CCC(OC(=O)CC(O)C(=O)O)C(C)C(C(NC(=O)C(C)C(O)CCC(C)C(O)C(C)=CC(C)C(O)C(CC(C)C)NC(=O)C=CC(C)(C)C(=O)C(C)C(O)C(C)C)C(C)O)OC(=O)C(C(O)C(=O)O)NC(=O)C=CC=CCCC=CC=CCC2CC(C)CC(CC(O)C(C)C(O)C(C)=CC(C)C1O)O2 (centres unmarked) [Chondropsin C, chondropsin C]",Ki,[1],80 nM
same,Ki,[2],3000 nM
"COC(=O)C(C)(C)C(O)C(C)C(=O)C(C)(C)C=CC(=O)NC(C(O)C(C)C)C(O)C(C)C=C(C)C(O)C(C)CCC(O)C(C)C(=O)NC1C(C)OC(=O)C(C(O)C(=O)O)NC(=O)C=CC=CCCC=CC=CCC2CC(C)CC(CC(O)C(C)C(O)C(C)=CC(C)C(O)C(C)=CCC(OC(=O)CC(O)C(=O)O)C(C)C1O)O2 (centres unmarked) [Chondropsin D, chondropsin D]",Ki,[1],140 nM
same,IC50 (cytotoxic activity),[3],approximately 10 ng/mL
same,IC50 (cytotoxic activity),[4],~0.25 µg/mL
same,Ki,[2],> 10000 nM
"C/C=C/[C@H]1O[C@@](O)([C@@H](C)[C@H](O)[C@H](C)[C@H]2OC(=O)/C(OC)=C/C(C)=C/[C@@H](C)[C@@H](O)[C@@H](CC)[C@@H](O)[C@H](C)C/C(C)=C/C=C/[C@@H]2OC)C[C@@H](O[C@H]2C[C@@H](O)[C@H](OC(N)=O)[C@@H](C)O2)[C@@H]1C [Concanamycin A, concanamycin A, reference compound]",Ki,[1],4 nM
same,Ki,[2],6 nM
"CC/C=C\C=C/C(=O)N/C=C/C[C@H]1C[C@@H](O)[C@@H](C)C/C=C/Cc2cccc(O)c2C(=O)O1 [Salicylihalamide A, salicylihalamide A, reference compound]",Ki,[1],> 10000 nM
same,Ki,[2],6.5 nM
